Data taken from patent US12691151B2, “Methods and compositions for improving oncolytic virus infection for nonpermissive cancers” (Arizona Board of Regents on behalf of Arizona State …, priority 2019, dated 2026).
“Also recorded” adds a separate entry of the source.

Tests used:
Type in all cases: cell-based, human
[1] = system: PANC-1 cells
[2] = system: A549 cell line; assay: MYXV replication in the permissive A549 cell line
[3] = system: HT29 cells
[4] = system: MDA-MB-435 cells
[5] = system: PANC-1 cells; remark: listed apart in the source
[6] = system: PANC-1 cells; remark: listed apart in the source
[7] = system: HT29 cells; remark: listed apart in the source
[8] = system: MDA-MB-435 cells; remark: listed apart in the source

## CCC(=C/[C@H](C)C/C=C/C(C)=C/[C@@H](C)C(=O)[C@@H](C)[C@H](O)[C@@H](C)C/C(C)=C/C(=O)O)/C=C/[C@@H]1OC(=O)C=C[C@@H]1C [Leptomycin B]
[1]
  viral replication (virus titer): enhanced MYXV gene expression and replication
[2]
  viral replication: only increased viral replication at an MOI of 0.1 or lower
[3]
  viral replication (virus titer): enhanced viral replication; also recorded: enhanced MYXV replication
[4]
  GFP (early/late) and TdTomato (late) expression: enhanced GFP (early/late) and TdTomato (late) expression; also recorded: enhanced MYXV gene expression
  formation of foci: allowed formation of small foci
[5]
  GFP (early/late) and TdTomato (late) expression: enhanced GFP (early/late) and TdTomato (late) expression; also recorded: enhanced MYXV gene expression
  formation of foci: allowed formation of small foci
[6]
  cell viability (ATP), Leptomycin B pretreatment plus MYXV: further reduced the viability; also recorded: reduced cell viability
[6]; 40 h
  cell viability (ATP): sensitive to Leptomycin B treatment alone
[7]
  GFP (early/late) and TdTomato (late) expression: enhanced MYXV early (GFP) and late (TdTomato) gene expression levels
  formation of foci: allowed formation of small foci
[8]
  viral replication (virus titer): enhanced MYXV gene expression and replication
